Half-life and Ki data for one molecule are collected here from ChEMBL document CHEMBL1133398, “Mechanism-based inactivation of thymidylate synthase by 5-(3-fluoropropyn-1-yl)-2'-deoxyuridine 5'-phosphate” (Bioorg Med Chem Lett, 2000).

The nature of data set [1]: Half life was determined. Particulars: rat. The format is ADME.
In data set [2] the target is T1, Thymidylate synthase (Lactobacillus casei, UniProt P00469).
T1 sequence (P00469 whole entry): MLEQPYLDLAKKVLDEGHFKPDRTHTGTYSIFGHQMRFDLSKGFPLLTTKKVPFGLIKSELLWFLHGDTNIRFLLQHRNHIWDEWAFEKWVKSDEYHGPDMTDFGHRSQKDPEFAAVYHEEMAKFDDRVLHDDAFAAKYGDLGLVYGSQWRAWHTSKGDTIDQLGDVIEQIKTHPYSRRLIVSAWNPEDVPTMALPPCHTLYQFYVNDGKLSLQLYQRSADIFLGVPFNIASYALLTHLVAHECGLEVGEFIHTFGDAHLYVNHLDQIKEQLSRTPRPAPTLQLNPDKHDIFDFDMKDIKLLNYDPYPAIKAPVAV
As to the kind of experiment: The compound was evaluated for the binding affinity against Lactobacillus casei dTMP synthase using spectrophotometric assay. Details: species or system Lacticaseibacillus casei.

Regarding `O=c1[nH]c(=O)n([C@H]2C[C@H](O)[C@@H](COP(=O)(O)O)O2)cc1C#CCF`, the half-life in data set [1] is less than 1 min. Moreover, the inhibition constant Ki in data set [2] is 14.8 nM.

For orientation: half-life means the time in which the quantity being followed falls by half. Read a low half-life as rapid decline. In general, Ki refers to a measure of affinity in units of concentration, obtained from inhibition or displacement. Low values mean a stronger hold on the target, high ones a looser hold on the target.
